Values after ≈ are worked out from the molar mass of the structure shown. Each block holds one molecule with its values, some of them ahead of it.
Assays:
Canis familiaris [1] = organism: Canis familiaris; test: Toxicity in dog assessed as hepatic portal tract lesions measured for 14 days by GLP assay; format: organism-based, Canis lupus familiaris; conditions: in vivo, 336 h
Streptococcus pneumoniae [2] = test: Antibacterial activity against Streptococcus pneumoniae 1629 assessed as growth inhibition after 18 to 24 hrs by broth microdilution method; format: functional
Staphylococcus aureus = test: Antibacterial activity against Staphylococcus aureus WCUH-29 assessed as growth inhibition after 18 to 24 hrs by broth microdilution method; format: functional
Haemophilus influenzae = test: Antibacterial activity against Haemophilus influenzae H128 assessed as growth inhibition after 18 to 24 hrs by broth microdilution method; format: functional
[3] = Inhibition of DNA gyrase-dependent DNA replication in toluenized-Haemophilus influenzae cells assessed as ATP-dependent [33P]-TTP incorporation after 30 mins by scintillation proximity assay; conditions: 0.5 h
[4] = Cmax in nonneutropenic mouse infected with Streptococcus pneumoniae 1629 at 50 mg/kg, po bid; format: ADME, organism-based; parameters: dose 50 mg/kg, route oral; conditions: in vivo
[5] = AUC in nonneutropenic mouse infected with Streptococcus pneumoniae 1629 at 50 mg/kg, po bid measured per day; format: ADME, organism-based; parameters: dose 50 mg/kg, route oral; conditions: plasma
Streptococcus pneumoniae [6] = test: Antibacterial activity against Streptococcus pneumoniae 1629 infected in nonneutropenic mouse assessed as reduction in bacterial burden in lungs at 100 mg/kg, po bid after 48 hrs; format: functional, Lung
Streptococcus pneumoniae [7] = test: Antibacterial activity against Streptococcus pneumoniae 1629 infected in nonneutropenic mouse assessed as reduction in bacterial burden in lungs at 50 mg/kg, po bid after 48 hrs relative to 1 hr nontreated control; format: functional, Lung
Liver microsomes = test: Intrinsic clearance in human liver microsomes; format: ADME, Microsome
[8] = Intrinsic clearance in monkey liver microsomes; format: ADME, Macaca mulatta, Microsome; conditions: rhesus monkey
Liver = test: Intrinsic clearance in dog liver microsomes; format: ADME, Canis lupus familiaris, Microsome
[9] = Plasma protein binding in human; format: ADME, cell-free; conditions: read-out: PPB (converted)
[10] = Plasma protein binding in monkey; format: ADME, cell-free, Macaca mulatta; conditions: rhesus monkey, read-out: PPB (converted)
[11] = Plasma protein binding in dog; format: ADME, cell-free, Canis lupus familiaris; conditions: read-out: PPB (converted)
[12] = Plasma protein binding in rat; format: ADME, cell-free; conditions: read-out: PPB (converted)
Cynomolgus monkey [13] = test: Renal clerance in cynomolgus monkey relative to total clearance; format: ADME, organism-based, Macaca fascicularis, Kidney; conditions: in vivo
Canis familiaris [14] = organism: Canis familiaris; test: Renal clerance in Beagle dog relative to total clearance; format: ADME, organism-based, Canis lupus familiaris, Kidney; conditions: in vivo
Cynomolgus monkey [15] = test: Blood clerance in cynomolgus monkey relative to hepatic blood flow; format: ADME, organism-based, Macaca fascicularis; conditions: in vivo
Canis familiaris [16] = organism: Canis familiaris; test: Blood clerance in Beagle dog relative to hepatic blood flow; format: ADME, organism-based, Canis lupus familiaris; conditions: in vivo
Rattus norvegicus = organism: Rattus norvegicus; test: Blood clerance in Sprague-Dawley rat relative to hepatic blood flow; format: ADME, organism-based; conditions: in vivo
[17] = Oral bioavailability in cynomolgus monkey at 5 mg/kg; format: ADME, organism-based, Macaca fascicularis; conditions: in vivo
[18] = Oral bioavailability in Beagle dog at 5 mg/kg; format: ADME, organism-based, Canis lupus familiaris; conditions: in vivo
[19] = AUC in cynomolgus monkey at 5 mg/kg, po; format: ADME, organism-based, Macaca fascicularis; parameters: dose 5 mg/kg, route oral; conditions: plasma
[20] = Oral bioavailability in Sprague-Dawley rat at 5 mg/kg; format: ADME, organism-based; conditions: in vivo
[21] = AUC in Beagle dog at 5 mg/kg, po; format: ADME, organism-based, Canis lupus familiaris; parameters: dose 5 mg/kg, route oral; conditions: plasma
[22] = AUC in Sprague-Dawley rat at 5 mg/kg, po; format: ADME, organism-based; parameters: dose 5 mg/kg, route oral; conditions: plasma
[23] = Half life in Beagle dog at 3 mg/kg, iv; format: ADME, organism-based, Canis lupus familiaris; parameters: dose 3 mg/kg, route intravenous; conditions: in vivo
[24] = Half life in cynomolgus monkey at 3 mg/kg, iv; format: ADME, organism-based, Macaca fascicularis; parameters: dose 3 mg/kg, route intravenous; conditions: in vivo
[25] = Half life in Sprague-Dawley rat at 3 mg/kg, iv; format: ADME, organism-based; parameters: dose 3 mg/kg, route intravenous; conditions: in vivo
[26] = Volume of distribution at steady state in cynomolgus monkey at 3 mg/kg, iv; format: ADME, organism-based, Macaca fascicularis; parameters: dose 3 mg/kg, route intravenous; conditions: in vivo, read-out: Vdss
[27] = Volume of distribution at steady state in Beagle dog at 3 mg/kg, iv; format: ADME, organism-based, Canis lupus familiaris; parameters: dose 3 mg/kg, route intravenous; conditions: in vivo, read-out: Vdss
[28] = Volume of distribution at steady state in Sprague-Dawley rat at 3 mg/kg, iv; format: ADME, organism-based; parameters: dose 3 mg/kg, route intravenous; conditions: in vivo, read-out: Vdss
[29] = Clearance in cynomolgus monkey at 3 mg/kg, iv; format: ADME, organism-based, Macaca fascicularis; parameters: dose 3 mg/kg, route intravenous; conditions: in vivo
[30] = Clearance in Beagle dog at 3 mg/kg, iv; format: ADME, organism-based, Canis lupus familiaris; parameters: dose 3 mg/kg, route intravenous; conditions: in vivo
[31] = Clearance in Sprague-Dawley rat at 3 mg/kg, iv; format: ADME, organism-based; parameters: dose 3 mg/kg, route intravenous; conditions: in vivo
[32] = molecular target: T1, Voltage-gated inwardly rectifying potassium channel KCNH2 (Homo sapiens, UniProt Q12809); test: Inhibition of human ERG transfected in HEK293 cells by patch clamp assay; format: cell-based
T1 sequence (Q12809 whole entry): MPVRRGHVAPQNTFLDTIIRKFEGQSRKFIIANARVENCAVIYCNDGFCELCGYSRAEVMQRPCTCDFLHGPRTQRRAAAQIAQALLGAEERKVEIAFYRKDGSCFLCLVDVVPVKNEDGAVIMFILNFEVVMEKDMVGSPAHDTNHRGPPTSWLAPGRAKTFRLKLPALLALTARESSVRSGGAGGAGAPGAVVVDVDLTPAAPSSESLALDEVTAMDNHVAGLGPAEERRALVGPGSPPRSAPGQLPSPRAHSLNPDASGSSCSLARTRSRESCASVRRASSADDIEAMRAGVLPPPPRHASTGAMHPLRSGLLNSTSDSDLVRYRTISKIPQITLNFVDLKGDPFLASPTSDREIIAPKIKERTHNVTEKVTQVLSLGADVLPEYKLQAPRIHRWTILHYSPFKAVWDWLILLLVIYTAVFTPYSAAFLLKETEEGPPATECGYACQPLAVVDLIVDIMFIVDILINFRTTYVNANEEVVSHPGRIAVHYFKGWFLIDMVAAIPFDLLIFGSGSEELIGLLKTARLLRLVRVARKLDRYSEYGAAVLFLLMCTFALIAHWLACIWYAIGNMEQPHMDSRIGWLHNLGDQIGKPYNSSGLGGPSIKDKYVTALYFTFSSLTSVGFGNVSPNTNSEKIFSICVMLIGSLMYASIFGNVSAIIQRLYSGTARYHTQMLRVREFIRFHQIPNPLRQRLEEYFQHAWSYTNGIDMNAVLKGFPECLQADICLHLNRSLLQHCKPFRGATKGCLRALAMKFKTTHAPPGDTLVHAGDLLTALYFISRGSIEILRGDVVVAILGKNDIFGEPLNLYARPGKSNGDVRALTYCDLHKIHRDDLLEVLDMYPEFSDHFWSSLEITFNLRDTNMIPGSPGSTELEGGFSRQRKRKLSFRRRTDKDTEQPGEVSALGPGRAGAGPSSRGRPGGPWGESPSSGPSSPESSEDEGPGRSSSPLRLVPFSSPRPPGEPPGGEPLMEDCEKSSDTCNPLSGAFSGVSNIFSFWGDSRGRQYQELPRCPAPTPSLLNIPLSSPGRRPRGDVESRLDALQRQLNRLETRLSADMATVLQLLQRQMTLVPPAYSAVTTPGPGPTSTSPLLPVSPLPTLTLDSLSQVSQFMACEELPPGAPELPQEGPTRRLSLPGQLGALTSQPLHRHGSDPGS

[33] = molecular target: T1, Voltage-gated inwardly rectifying potassium channel KCNH2; test: Inhibition of human ERG by patch clamp assay

- MIC (Streptococcus pneumoniae [2]): 0.125 µg/mL (≈ 0.268 µM)
- MIC (Staphylococcus aureus): 0.06 µg/mL (≈ 0.129 µM)
- MIC (Haemophilus influenzae): 1 µg/mL (≈ 2.14 µM)
- IC50 [3]: 0.071 µg/mL (≈ 0.152 µM)
Compound: O=c1ccc2ccc(F)c3c2n1C[C@@]3(O)CN1CCC(NCc2cc3c(cn2)OCCO3)CC1
- Activity (Canis familiaris [1]): Non-toxic

- MIC (Streptococcus pneumoniae [2]): 0.125 µg/mL (≈ 0.267 µM)
- MIC (Staphylococcus aureus): 0.125 µg/mL (≈ 0.267 µM)
- MIC (Haemophilus influenzae): 0.5 µg/mL (≈ 1.07 µM)
- IC50 [3]: 0.058 µg/mL (≈ 0.124 µM)
Compound: O=c1cnc2ccc(F)c3c2n1C[C@@]3(O)CN1CCC(NCc2cc3c(cn2)OCCO3)CC1
- Activity (Canis familiaris [1]): Non-toxic
- IC50 [32]: 206 µM
- IC50 [33]: 101 µM

- MIC (Streptococcus pneumoniae [2]): 0.06 µg/mL (≈ 0.133 µM)
- MIC (Staphylococcus aureus): 0.03 µg/mL (≈ 0.0664 µM)
- MIC (Haemophilus influenzae): 0.25 µg/mL (≈ 0.554 µM)
- IC50 [3]: 0.035 µg/mL (≈ 0.0775 µM)
Compound: O=c1ccc2ncc(F)c3c2n1C[C@H]3CN1CCC(NCc2cc3c(cn2)OCCO3)CC1
- Activity (Canis familiaris [1]): Non-toxic
- IC50 [32]: 122 µM
- IC50 [33]: 58 µM

- MIC (Streptococcus pneumoniae [2]): 4 µg/mL (≈ 8.27 µM)
- MIC (Staphylococcus aureus): > 16 µg/mL
- MIC (Haemophilus influenzae): 4 µg/mL (≈ 8.27 µM)
- IC50 [3]: 0.361 µg/mL (≈ 0.747 µM)
Compound: O=c1ccc2ncc(F)c3c2n1C[C@@]3(O)CN1CCO[C@@H](CNCc2cc3c(cn2)OCCO3)C1
- Activity (Canis familiaris [1]): Non-toxic

Further lines, the molecule ahead of its results:

Compound: O=c1ccc2ncc(F)c3c2n1C[C@@]3(O)CN1CCC(NCc2cc3c(cn2)OCCO3)CC1
- Activity (Canis familiaris [1]): Toxic
- Cmax [4]: 8000 ng/mL
- AUC [5]: 50000 ng·h/mL
- log10cfu (Streptococcus pneumoniae [6]): 1.7
- log10cfu (Streptococcus pneumoniae [7]): 2
- CLH (Liver microsomes): < 0.5 mL/min/g
- CLH [8]: 1.6 mL/min/g
- CLH (Liver): < 0.5 mL/min/g
- fraction unbound [9]: 0.777
- fraction unbound [10]: 0.781
- fraction unbound [11]: 0.823
- fraction unbound [12]: 0.577
- CL (Cynomolgus monkey [13]): 15%
- CL (Canis familiaris [14]): 27%
- CL (Cynomolgus monkey [15]): 50%
- CL (Canis familiaris [16]): 50%
- CL (Rattus norvegicus): 100%
- bioavailability [17]: 55%
- bioavailability [18]: 63%
- AUC [19]: 1920 ng·h/mL
- bioavailability [20]: 34%
- AUC [21]: 2820 ng·h/mL
- AUC [22]: 460 ng·h/mL
- half-life [23]: 7.1 h
- half-life [24]: 2.3 h
- half-life [25]: 3.1 h
- Vd [26]: 3.4 L/kg
- Vd [27]: 6.4 L/kg
- Vd [28]: 8.6 L/kg
- clearance [29]: 25.1 mL/min/kg
- clearance [30]: 18.1 mL/min/kg
- clearance [31]: 62.2 mL/min/kg
- IC50 [32]: 310 µM
- IC50 [33]: 239 µM
- MIC (Streptococcus pneumoniae [2]): 0.125 µg/mL (≈ 0.267 µM)
- MIC (Staphylococcus aureus): 0.125 µg/mL (≈ 0.267 µM)
- MIC (Haemophilus influenzae): 1 µg/mL (≈ 2.14 µM)
- IC50 [3]: 0.035 µg/mL (≈ 0.0749 µM)

Compound: O=c1c(F)cc2ncc(F)c3c2n1C[C@@]3(O)CN1CCC(NCc2cc3c(cn2)OCCO3)CC1
- Activity (Canis familiaris [1]): Non-toxic
- IC50 [33]: 289 µM
- MIC (Streptococcus pneumoniae [2]): 0.25 µg/mL (≈ 0.515 µM)
- MIC (Staphylococcus aureus): 0.25 µg/mL (≈ 0.515 µM)
- MIC (Haemophilus influenzae): 0.5 µg/mL (≈ 1.03 µM)
- IC50 [3]: 0.037 µg/mL (≈ 0.0762 µM)

Compound: O=c1ccc2ncc(F)c3c2n1C[C@@]3(F)CN1CCC(NCc2cc3c(cn2)OCCO3)CC1
- Activity (Canis familiaris [1]): Non-toxic
- MIC (Streptococcus pneumoniae [2]): 0.06 µg/mL (≈ 0.128 µM)
- MIC (Staphylococcus aureus): 0.03 µg/mL (≈ 0.0639 µM)
- MIC (Haemophilus influenzae): 0.5 µg/mL (≈ 1.06 µM)
- IC50 [3]: 0.04 µg/mL (≈ 0.0852 µM)

Compound: O=c1ccc2ncc(F)c3c2n1C[C@]3(O)CN1CCC(NCc2cc3c(cn2)OCCO3)CC1
- Activity (Canis familiaris [1]): Non-toxic
- MIC (Streptococcus pneumoniae [2]): 4 µg/mL (≈ 8.56 µM)
- MIC (Staphylococcus aureus): 8 µg/mL (≈ 17.1 µM)
- MIC (Haemophilus influenzae): > 16 µg/mL
- IC50 [3]: > 1.32 µg/mL

Compound: O=c1ccc2ncc(F)c3c2n1C[C@@]3(O)CN1CCC[C@@H](CNCc2cc3c(cn2)OCCO3)C1
- Activity (Canis familiaris [1]): Non-toxic
- MIC (Streptococcus pneumoniae [2]): 4 µg/mL (≈ 8.31 µM)
- MIC (Staphylococcus aureus): 4 µg/mL (≈ 8.31 µM)
- MIC (Haemophilus influenzae): 16 µg/mL (≈ 33.2 µM)
- IC50 [3]: 1.21 µg/mL (≈ 2.52 µM)

From ChEMBL document CHEMBL2424589, “Novel hydroxyl tricyclics (e.g., GSK966587) as potent inhibitors of bacterial type IIA topoisomerases” (Bioorg Med Chem Lett, 2013)
